The nature of data set [1]: Pharmacokinetic assay after repeated oral administration. The conditions noted are these: female, B-hPD-1/hPD-L1, mouse; plasma, 50 mg/kg oral once a day, after administration on the 18th day. Type of data set: in vivo, B-hPD-1/hPD-L1 mice. The procedure:
Twenty-four female B-hPD-1/hPD-L1 mice aged 6-8 weeks were purchased from Biocytogen Jiangsu Gene Biotechnology Co., Ltd. The mice were randomly divided into 4 groups, 6 mice in each group. The test compounds were prepared in a vehicle containing 5% DMSO, 60% PEG400 and 35% purified water, including I-1 and 3 control molecules Example 17, Compound 14 (INCB086550), and Example 180. The compounds were administered orally at 50 mg/kg, once a day. The blood was collected alternately through the fundus venous plexus after the administration on the 18th day. The blood collection time points were 15 min, 30 min, 1 h, 2 h, 4 h, 8h, 24 h and 32h. About 0.1 mL of blood was collected in a centrifuge tube (anticoagulated with sodium heparin), and centrifuged at 5000 rpm for 5 min. Then the plasma was separated, and frozen at −20° C. for later detection. After the plasma samples were processed, the concentration of the compounds in the plasma was determined by liquid chromatography-mass spectrometry (LC-MS/MS). The pharmacokinetic parameters were calculated using Phoenix WinNonlin 7.0.

Data set [2] can be described thus: Tumor tissue distribution assay in MC38-PD-L1 tumor-bearing mice. The class given is in vivo, B-hPD-1/hPD-L1 humanized mice. The conditions noted are these: 50 mg/kg oral once/day; for concentration at 4 h / concentration at 24 h: female, B-hPD-1/hPD-L1 humanized, mouse, tumor tissue. The text has this:
16 B-hPD-1/hPD-L1 humanized female mice, aged 6-8 weeks were purchased from Biocytogen Jiangsu Gene Biotechnology Co., Ltd. After 1 week of adaptation, the mice were subcutaneously inoculated with MC38-PD-L1 cells at 2×10^6 cells/site. After the tumor grew to about […], the mice were divided into 4 groups, 4 mice in each group. The test compounds were formulated in a vehicle containing 5% DMSO, 60% PEG400 and 35% purified water, including I-1 and 3 control molecules Example 17, Compound 14 (INCB086550), and Example 180. The compounds were orally administered at 50 mg/kg, once/day. The blood and tumor tissue were collected 4 h and 24 h after administration on the 18th day. A certain amount of tissue was weighed, and added with phosphate-buffered saline (PBS) solution for homogenization. After the sample was processed, it was analyzed by LC-MS/MS to determine the concentration of the compound in plasma and tissue.

For data set [3] the following is noted: clinical studies; cited from earlier work.
Data set [4] deals with PD-1/PD-L1-mediated T cell activation inhibitory signal. Briefly: CHO-PD-L1-CD3L / Jurkat-PD-1-NFAT co-culture luciferase reporter assay. The class given is cell-based. Conditions: Homo sapiens, co-culture 6 h, read-out: EC50 blocking PD-1/PD-L1-mediated T cell activation inhibitory signal. The procedure: In order to detect the effect of the interaction between PD-1 and PD-L1 on T cell activation signals in the immune response, CHO-PD-L1-CD3L cells stably expressing human PD-L1 molecules and anti-CD3 single-chain antibody (ScFv) and Jurkat-PD-1-NFAT cells stably expressing human PD-1 molecule and NFAT reporter gene were constructed. When the two kinds of cells were co-incubated, the binding of anti-CD3ScFv on the surface of CHO cells and the membrane CD3 molecules of Jurkat cells would transmit an activation signal to Jurkat cells, but simultaneously, the binding of PD-L1 on the surface of CHO cells and PD-1 molecules on the surface of Jurkat cells would transmit an inhibitory signal inward to prevent expression of the luciferase reporter gene. When immune checkpoint antibodies or small molecule inhibitors were added, the binding of PD-1 and PD-L1 was blocked, the NFAT pathway activated by T cell activation signal mediated by cross-linking of CD3ScFv antibody and CD3 was no longer affected by the inhibitory signal, and the downstream luciferase reporter gene started to be expressed. A chemiluminescent signal proportional to reporter gene activation was detected by adding a catalytic substrate.
CHO-PD-L1-CD3L cells expressing human PD-L1 molecule and anti-CD3 single-chain antibody (ScFv) and Jurkat-PD-1-NFAT cells stably expressing human PD-1 molecule and NFAT reporter gene were independently constructed and provided by Dr. Chen Bo (KeyMed Bioscience (Chengdu) Co., Ltd.). Puromycin (Cat #540411) and Hygromycin B (Cat #V900372) for stable culture of transfected cells were purchased from Sigma, PMA (Cat #P1585) was purchased from Sigma, anti-human PD-L1 antibody (Cat #GMP-A066) was purchased from Novoprotein Company. Luciferase substrate solution (Cat #E6485) and luciferase-specific cell lysis solution 5× (Cat #E1531) were purchased from Promega. Fluorescence detection instrument Tecan (Spark 10M) was purchased from Switzerland Tecan Company.
(1) The day before the experiment, 100 μL of CHO-PD-L1-CD3L cells were inoculated in each well of a 96-well cell culture plate (about 4×10^4 cells/well) with a medium of DMEM/F12 containing 10% FBS, 8 μg/mL puromycin and 200 μg/mL hygromycin B, and cultured overnight at 37° C.
(2) The test compounds were diluted with 0.1% PBST into different concentration gradients, added into 96-well plates, and pre-incubated for 30 min. Jurkat-PD-1-NFAT cell count was adjusted to 2×10^5 cells/mL with the RPMI 1640 complete medium containing 10% FBS, […]8 μg/mL puromycin and 200 μg/mL hygromycin B. 100 ng/mL PMA (the stock solution was prepared with DMSO to a concentration of 10 mg/mL) was added to amplify T cell activation signal. 100 μL of the above Jurkat-PD-1-NFAT cells was added to each well of the 96-well plate for co-culture.
(3) When detecting the reaction, a control group was provided, including a solvent control without adding test compounds and a positive control with addition of anti-human PD-1 antibody as the experimental system. All detections were performed with duplicates.
(4) After continuous incubation at 37° C. for 6 h, 40 μL of 5× cell lysate was directly added, and mixed well. The plate was placed at room temperature for 10 min to completely lyse the cells. 50 μL of the lysed cell solution was transferred to a fluorescence detection plate, and added with 30 μL of luciferase substrate solution. The chemiluminescence detection program on the fluorescence detector was immediately selected for detection.
(5) The inhibition rate of T cell activation signal at the cellular level of the test compounds was calculated as follows: Inhibition rate of T cell activation signal (%)=(the original value of chemiluminescence in the detection well−solvent control)/(the highest original value of chemiluminescence detected in the compound detection well−solvent control)×100%. […]
In general terms: Reporter assays use an easily measured gene product as a stand-in for the process of interest.

[5] abbreviates: 4 h after administration on the 18th day.
[6] abbreviates: 24 h after administration on the 18th day.

For orientation: AUC(0-t) means the area under the concentration-time curve up to a stated or last time point. Lower therefore signals low exposure. One may read the MRT as the average time that molecules of a dose stay in the body. What is called half-life is the time in which the quantity being followed falls by half. A high value points to slow decline.

In data set [1], `Cc1c(Nc2nccc3cc(CN4CC[C@@H](O)C4)cnc23)cccc1-c1cccc(-c2nc3cc(CN4CC[C@@H](C(=O)O)C4)cc(C#N)c3o2)c1C` [Compound 14 (INCB086550)] gave an AUC(0-t) of 15800 ng·h/mL, an MRT of 5.1 h and a half-life of 3.9 h. Moreover, in data set [2] (setting [5]), the “Ratio of I-1 to control molecule (tumor tissue concentration)” value (“Ratio of I-1 to control molecule” below) was 5.9 and the concentration at 4 h worked out at 6600 ng/g. In data set [2] (setting [6]), the “Ratio of I-1 to control molecule” value is 7.6 and the concentration at 24 h was found to be 3600 ng/g.

Consider atezolizumab: PD-1/PD-L1 antibody drug, for which the T1/2 in data set [3] is 648 h.

`[2H]c1c([2H])c(NC(=O)c2nc3c(n2C)CCN(CCC24CCC(COC)(CC2)C4)C3)c(F)c(-c2c([2H])c([2H])c([2H])c(NC(=O)c3nc4c(n3C)CCN(CCC35CCC(C(=O)O)(CC3)C5)C4)c2Cl)c1[2H]` [Compound I-15, 4-(2-(2-((2-chloro-2′-fluoro-3′-(5-(2-(4-(methoxymethyl)bicyclo[2.2.1]heptane-1-yl)ethyl)-1-methyl-4,5,6,7-tetrahydro-1H-imidazo[4,5-c]pyridine-2-carboxamido)-[1,1′-biphenyl]-3-yl-4,4′,5,5′,6,6′-d6)carbamoyl)-1-methyl-1,4,6,7-tetrahydro-5H-imidazo[4,5-c]pyridin-5-yl)ethyl)bi cyclo[2.2.1]heptane-1-carboxylic acid]: in data set [4], the EC50 turned out to be 18.9 nM.

Regarding nivolumab: PD-1/PD-L1 antibody drug, the T1/2 in data set [3] was 605 h.

As to `Cn1c(C(=O)Nc2cccc(-c3cccc(NC(=O)c4nc5c(n4C)CCN(CC46CCC(C(=O)O)(CC4)C6)C5)c3Cl)c2Cl)nc2c1CCN(CCO)C2` [Example 180], in data set [1], the AUC(0-t) was 33700 ng·h/mL, the MRT came out at 5.6 h and the half-life was 3.8 h. In addition, in data set [2] (setting [5]), the “Ratio of I-1 to control molecule” value was determined as 8.7 and the concentration at 4 h is 4500 ng/g. In addition, in data set [2] (setting [6]), the “Ratio of I-1 to control molecule” value amounted to 30.2 and the concentration at 24 h was 900 ng/g.

For the compound pembrolizumab: PD-1/PD-L1 antibody drug, the T1/2 in data set [3] is 600 h.

As to `Cn1c(C(=O)Nc2cccc(-c3cccc(NC(=O)c4nc5c(n4C)CCN(CCC46CCC(C(=O)O)(CC4)C6)C5)c3Cl)c2Cl)nc2c1CCN(CCC13CCC(C(=O)O)(CC1)C3)C2` [Example 17], in data set [1], the AUC(0-t) was determined as 67400 ng·h/mL, the MRT is 5.8 h and the half-life is 4.2 h. In data set [2] (setting [5]), the “Ratio of I-1 to control molecule” value amounted to 7.8 and the concentration at 4 h turned out to be 5000 ng/g. In data set [2] (setting [6]), the “Ratio of I-1 to control molecule” value was found to be 27.2 and the concentration at 24 h was determined as 1000 ng/g.

Source of the values: patent US20260234164A1, “BIPHENYL COMPOUND AS IMMUNOMODULATOR, PREPARATION METHOD THEREFOR AND USE THEREOF” (SHENZHEN CHIPSCREEN BIOSCIENCES CO., LTD., priority 2021, published 2026).
